Test systems include CCRF-CEM leukemia; DU-145 prostate; HL-60(TB) leukemia; KM12 colon; M14 melanoma; NCI-H226 lung; SF-295 CNS; SR leukemia; UO-31 renal.
What all share (assay): NCI anticancer screen, dose series, 48 h

This is an account of results in PubChem BioAssay (NCI).

Several values for one entry are separate records, joined by “and”; a condition that tells them apart may be missing. Equal entries are not always repeated.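 Exposure lasted 48 hours, with cells grown in 96-well plates and compounds tested at five concentrations. Here, GI50 denotes the concentration required for 50% inhibition of growth. At the TGI there is no net growth.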

`O=C(O)c1ccc(CSc2nc3ccccc3[nH]2)cc1`: the GI50 was greater than 100 µM with CCRF-CEM leukemia; greater than 100 µM in the test on DU-145 prostate; greater than 100000 nM in the test on HL-60(TB) leukemia; greater than 100 µM with KM12 colon; greater than 100 µM with M14 melanoma; greater than 100 µM in the test with NCI-H226 lung. The GI50 with SF-295 CNS, in the test on SR leukemia and in the test with UO-31 renal was greater than 100 µM each time. Besides, the TGI in the test on CCRF-CEM leukemia, with DU-145 prostate, with HL-60(TB) leukemia, in the test on KM12 colon, with M14 melanoma and with NCI-H226 lung was greater than 100 µM throughout. For the same compound, the TGI in the test with SF-295 CNS, with SR leukemia and with UO-31 renal was greater than 100 µM each time.
For `CCCCCCCCCCCCC(O)C1CCC(C(O)CCCCC(O)CCCCCC2CC(CC(C)=O)C(=O)O2)O1` (stereo not drawn), the TGI in the test with CCRF-CEM leukemia was 5.6 µM and 8.12 µM; with HL-60(TB) leukemia it was 4.02 µM and 2.75 µM; with KM12 colon, 4.89 µM and 20.5 µM; in the test with M14 melanoma it was 3.33 µM and 22.2 µM; in the test with NCI-H226 lung it was 4.19 µM and 12.7 µM; in the test with SF-295 CNS it was 13.5 µM. For the same compound, the TGI was 6.93 µM and 25.5 µM with SR leukemia; 3.81 µM and 14 µM in the test with UO-31 renal. Moreover, the GI50 with HL-60(TB) leukemia was 1290 nM; with KM12 colon, 7.64 µM; with M14 melanoma, 1.66 µM; in the test with NCI-H226 lung, 0.0401 µM; with SF-295 CNS, 0.508 µM; in the test on SR leukemia it was 2.8 µM. Further, in the test on UO-31 renal, the GI50 was 1.06 µM.
Turning to `Cc1[nH]c(=O)n2c(C)nnc2c1C(=O)O`, the TGI with CCRF-CEM leukemia, in the test on HL-60(TB) leukemia, in the test with KM12 colon, in the test on M14 melanoma, in the test on NCI-H226 lung and in the test on SF-295 CNS was greater than 100 µM in each case. Besides, the TGI with SR leukemia and in the test with UO-31 renal was greater than 100 µM in each case.
Take `NNC(=O)/C(NC(=O)c1ccccc1)=C(\N)c1cccc([N+](=O)[O-])c1`: the TGI in the test on CCRF-CEM leukemia, in the test with HL-60(TB) leukemia, in the test with KM12 colon, with M14 melanoma, in the test with NCI-H226 lung and with SF-295 CNS was greater than 100 µM throughout. Moreover, the TGI in the test on SR leukemia and with UO-31 renal was greater than 100 µM throughout.
As to `COC(=O)C1C(C(=O)O)C2(c3ccccc3)C(=O)C1(c1ccccc1)C(c1ccc(OC)cc1)=C2c1ccc(OC)cc1` (stereo not drawn), the GI50 in the test with CCRF-CEM leukemia was 13.2 µM; in the test on DU-145 prostate it was 19.9 µM; with KM12 colon, 27 µM; with M14 melanoma it was 18.6 µM; with NCI-H226 lung, 21.9 µM; with SF-295 CNS it was 30.3 µM. Also, the GI50 in the test on SR leukemia was 27.2 µM; with UO-31 renal, 25.8 µM. Also, the TGI with CCRF-CEM leukemia is 38.5 µM; with DU-145 prostate, 49.8 µM; in the test with KM12 colon it was 74.6 µM; in the test with M14 melanoma, 34.8 µM; in the test on NCI-H226 lung, 55.6 µM; with SF-295 CNS it was 77.2 µM. The TGI with SR leukemia turned out to be 63 µM; in the test with UO-31 renal, 75 µM.
For `CC1=C2CC[C@@]3(C)C(=CCC3O)C2(C)CCC1=O` (stereo partly drawn), the TGI with CCRF-CEM leukemia, in the test with HL-60(TB) leukemia, in the test on KM12 colon, in the test with M14 melanoma, with NCI-H226 lung and in the test on SF-295 CNS was greater than 100 µM throughout. Besides, the TGI in the test on SR leukemia and in the test on UO-31 renal was greater than 100 µM in each case.
In the case of `CC(=O)OC(COc1ccc2c(c1)[n+]([O-])nc(N)[n+]2[O-])CN1CCCCC1` (stereo not drawn), the TGI in the test with CCRF-CEM leukemia was determined as 79.3 µM; with DU-145 prostate, 54.9 µM; in the test with HL-60(TB) leukemia, 26.9 µM; with KM12 colon, 50.4 µM; in the test on M14 melanoma it was 38.7 µM; with NCI-H226 lung it was 54 µM. The TGI was 70.1 µM with SR leukemia and greater than 100 µM in the test with UO-31 renal.
On to `O=C(Cc1cc(O)ccc1O)NO`, for which the GI50 was 22.3 µM in the test with CCRF-CEM leukemia; greater than 100 µM with DU-145 prostate; greater than 100 µM in the test with KM12 colon; greater than 100 µM in the test with M14 melanoma; 70 µM in the test with NCI-H226 lung; 21.7 µM in the test on SF-295 CNS. The GI50 in the test with SR leukemia was 20.5 µM; in the test with UO-31 renal it was greater than 100 µM. The TGI was 48.6 µM with CCRF-CEM leukemia; greater than 100 µM in the test with DU-145 prostate; greater than 100 µM in the test on KM12 colon; greater than 100 µM with M14 melanoma; greater than 100 µM in the test with NCI-H226 lung; 47.9 µM in the test with SF-295 CNS. The TGI is 52.6 µM with SR leukemia and greater than 100 µM in the test with UO-31 renal.
`CC(=O)Oc1ccc2c(=O)c(C(C)=O)coc2c1`: the TGI in the test with CCRF-CEM leukemia, in the test with HL-60(TB) leukemia, in the test with KM12 colon, in the test with M14 melanoma, in the test on NCI-H226 lung and with SF-295 CNS was greater than 100 µM each time. Also, the TGI in the test on SR leukemia and with UO-31 renal was greater than 100 µM in each case.
Regarding `OC1CC(O)O[C@H](c2ccccc2)C1` (stereo partly drawn), the TGI with CCRF-CEM leukemia, in the test on HL-60(TB) leukemia, in the test on KM12 colon, with M14 melanoma, with NCI-H226 lung and in the test with SF-295 CNS was greater than 100 µM each time. The TGI in the test with SR leukemia and in the test on UO-31 renal was greater than 100 µM throughout.
